Structures are written as SMILES.

The test system of series [1] is neonatal rat cardiac myocytes. Put plainly: FACS analysis of ΔΨm in TMRE-loaded cells. The following applies: for protection against ΔΨm loss in the presence of mitoKATP channel blocker 5HD: 100 μM drug plus 500 μM 5HD. The format is cell-based. As for the experimental part: (§1) Cardiac ventricular myocytes were prepared from 1-2-day-old Wister rats and cultured as previously described (Akao M, et al., Circ Res. 2001; 88:1267-75). In brief, the hearts were removed, and the ventricles were minced into small fragments, which were digested by trypsin dissociation. The dissociated cells were preplated for 1 hour to enrich the culture with myocytes. The non-adherent myocytes were then plated in plating medium consisting of Dulbecco's Modified Eagle Medium (DMEM) (Nacalai tesque; Kyoto, Japan) supplemented with 5% fetal calf serum, penicillin (100 U/ml), streptomycin ([…]), and 2 μg/ml vitamin B12. The final myocyte cultures contained >90% cardiac myocytes. The cells were maintained at 37° C. in the presence of 5% CO2 in a humidified incubator. Bromodeoxyuridine (0.1 mM) was incubated in the medium for the first 3 days after plating to inhibit fibroblast growth. Cultures were then placed in serum-free DMEM containing vitamin B12 and transferrin, 24 hours prior to the drug treatment.
(§2) To monitor ΔΨm, cells were loaded with 100 nM tetramethylrhodamine ethyl ester (TMRE) (Molecular Probes) at 37° C. for 20 minutes. To monitor [Ca^2+]m, the cells were loaded with 2 μM […] (Molecular Probes) at 37° C. for 30 minutes. We assayed intracellular ROS production using chloromethyl-2,7-dichlorodihydrofluorescein diacetate (DCF) (Molecular Probes). Cells were loaded with 4 μM DCF at 37° C. for 30 minutes, and formation of the oxidized derivative was monitored by the increase of green fluorescence.
For FACS analysis of ΔΨm, TMRE-loaded cells were harvested by trypsinization at the end of the experimental protocols, and analyzed using FACSAria (BD Biosciences; San Jose, Calif.) (20,000 cells/sample). The fluorescence intensity of TMRE was monitored at 582 nm (FL-2). The FACS data were analyzed using analysis software (WinMDI; http://facs/scripps.edu/software.html).
C=Control cells; H=Cells exposed to 100 μM H2O2 for 1 hour; SFA=Cells pretreated with 100 μM SFA followed by 100 μM H2O2 for 1 hour. In all histograms, the position of the major population of cells in the control group is indicated by a vertical dashed line. […] Cells were pretreated with various concentrations of SFA followed by 100 μM H2O2 for 1 hour. C=Control cells. SFA preserved ΔΨm in a concentration-dependent manner
FIG. 2c and FIG. 2d show the summarized data of the percentage of cells that maintain high (>200) TMRE fluorescence. The cells were pre-treated with various drugs shown in the figure and then treated with 100 μM H2O2 for 1 hour. DZ=100 μM diazoxide; 5HD=500 μM 5-hydroxydecanoate.
(A flow cytometer gives signals particle by particle.)

In series [2] the test system is isolated cardiac myocytes. The following applies: previously reported (Akao et al. 2001); cited from earlier work.
The conditions of series [3]: electron spin resonance analysis; cited from earlier work.
The test system of series [4] is neonatal rat cardiac myocytes. Put plainly: Time-lapse confocal analysis of [Ca2+]m (rhod-2 fluorescence). The following applies: 100 μM SFA pretreatment; H2O2 for 1 hour (50 μM, 100 μM elsewhere in the source). The format is cell-based. As for the experimental part:
as §2
Cells plated on 35 mm glass-bottom dishes were maintained at 37° C. in the presence of 5% CO2 using a heater platform installed on a microscope stage, and were placed in serum-free DMEM. After the desired temperature was reached, time-lapse confocal microscopy was started with 2 minute intervals, using a 20× objective lens. […]
(§3) Twenty-five cells were randomly selected in each scan, and the red or green fluorescence intensity was sequentially monitored.
Calcium overload in mitochondrial matrix is one of the critical triggers of cell death and is also an important inducer of MPTP opening. To monitor the [Ca^2+]m level, the present inventors performed time-lapse confocal microscopy using the [Ca^2+]m sensitive dye, rhod-2, and observed the change of fluorescence due to 50 μM H2O2 stimulation in each group (FIG. 5). […]

Series [5] can be described thus: Blood pressure measurement after femoral vein administration. The note with it: 10 mg/kg into femoral vein; monitored until 10 minutes after administration; anesthetized rats. The format is in vivo, Sprague-Dawley male rats. As for the experimental part: The distal end of the common carotid artery of 8-week-old Sprague-Dawley male rats (about 250 g) was ligated under the effect of pentobarbital anesthetic. Then, to the proximate end thereof, a polyethylene tube filled with heparin-containing saline and connected to a pressure converter was inserted. Changes in blood pressure were recorded by a pen recorder.
A 24-gauge injection needle connected to a syringe via the tube was inserted into the femoral vein, and the liquid drug was injected over 1 to 2 minutes. The blood pressure was monitored from before the liquid drug administration until 10 minutes after the administration.
Serofendic acid was dissolved in Meylon (7% NaHCO3) at a concentration of 4 mg/mL. The blood pressure of each individual rat was measured after only the solvent was administered. Then, 10 mg/kg of serofendic acid was administered. The average of the blood pressure for 3 minutes before the administration of each of SFA and Meylon was set as 100%.

The subject of series [6] is neonatal rat cardiac myocytes. Put plainly: Time-lapse confocal analysis of intracellular ROS production (DCF fluorescence). The class given is cell-based. The note with it: 100 μM SFA pretreatment; H2O2 for 30 min (50 μM, 100 μM elsewhere in the source). The method, then:
as §2
Cells plated on 35 mm glass-bottom dishes were maintained at 37° C. in the presence of 5% CO2 using a heater platform installed on a microscope stage, and were placed in serum-free DMEM. After the desired temperature was reached, time-lapse confocal microscopy was started with 2 minute intervals, using a 20× objective lens. Images were taken with laser scanning confocal microscopy (Zeiss, LSM510). […]
as §3
ROS is one of the most important inducers of MPTP opening. To investigate whether the suppression of ROS production is associated with the protective effects of SFA, the present inventors assessed the change of DCF fluorescence by 50 μM H2O2 stimulation in each group using time-lapse confocal microscopy (FIG. 4). […]

Series [7] concerns neonatal rat cardiac myocytes. Put plainly: Time-lapse confocal analysis of ΔΨm loss (TMRE fluorescence). The format is cell-based. As for the experimental part: as §2
Cells plated on 35 mm glass-bottom dishes were maintained at 37° C. in the presence of 5% CO2 using a heater platform installed on a microscope stage, and were placed in serum-free DMEM. After the desired temperature was reached, time-lapse confocal microscopy was started with 2 minute intervals, using a 20× objective lens. Images were taken with laser scanning confocal microscopy (Zeiss, LSM510). TMRE and rhod-2 AM were excited at 543 nm using a helium/neon laser. DCF was excited at 488 nm using an argon laser.
as §3
To further confirm the protective effect of SFA in preventing the loss of ΔΨm, the present inventors examined the time-dependent changes of ΔΨm on a single-cell basis (FIG. 3). Time-lapse confocal analysis of cardiac myocytes loaded with TMRE was performed at 2-minute intervals. Time-lapse scanning began immediately after the application of 50 μM H2O2.
C=Control cells; H=Cells exposed to 100 μM H2O2 for 1 hour; SFA=Cells pretreated with 100 μM SFA followed by 100 μM H2O2 for 1 hour. Scale bars at 0 min frames: 20 μm.

Series [8] relates to neonatal rat cardiac myocytes. The series can be described thus: MTS assay of cell viability after H2O2. The format is cell-based. The note with it: 100 μM SFA; H2O2 treatment 3 hours; P<0.01 vs H group. The method, then: as §1, with “Bromodeoxyuridine (0.1 mM) was incubated in the medium for the first 3 days after plating to inhibit fibroblast growth. Cultures were then placed in serum-free DMEM containing vitamin B12 and transferrin, 24 hours prior to the drug treatment.” left out
Cell viability was quantified based on metabolic activity using the MTS assay (Promega; Madison, Wis.). […] The quantity of formazan product is directly proportional to the number of living cells in culture (Zhang H M, et al., Circ Res. 2002; 90:1251-8).
The cultures were incubated in serum-free medium containing 20 μl/well of the MTS tetrazolium compound for 3 hours at 37° C. The absorbance of formazan products was photometrically measured at 490 nm with a microplate reader, ARVOsx (PerkinElmer; Shelton, Wash.). Cell viability was expressed as the percentage of the absorbance measured in the control group. […]
Background: Tetrazolium assays rely on reduction of a dye to a coloured formazan, in cell work by metabolically active cells.

The subject of series [9] is neonatal rat cardiac myocytes. Put plainly: TUNEL staining and DAPI staining of neonatal rat cardiac myocytes exposed to H2O2. The class given is cell-based. The method, then: as §1, with “Cultures were then placed in serum-free DMEM containing vitamin B12 and transferrin, 24 hours prior to the drug treatment.” left out
TUNEL staining was performed according to the manufacturer's protocol (Roche; Indianapolis, Ind.). Fluorescein labels incorporated in nucleotide polymers were detected with a fluorescence microscope (Axioskop 2 plus, Zeiss; Thornwood, N.Y.).
Cells were stained with the DNA binding dye DAPI (5 μM, Molecular Probes; Eugene, Oreg.). The nuclear morphology of cells were visualized and photographed with the fluorescence microscope. […]

The test system of series [10] is cultured cortical and striatal neurons. The note with it: in vitro; cited from earlier work.
[11] abbreviates: 25 randomly selected cells, 100 μM SFA, H2O2.

For `CCCCCC(O)CCCC(=O)O` (centres unmarked) [5HD, 5-hydroxydecanoate, reference compound], the “effect of 5HD alone on the loss of ΔΨm elicited by H2O2” value in series [1] (500 μM 5HD, 100 μM H2O2) is recorded as “did not aggravate the loss of ΔΨn”.

Regarding `CC1=NS(=O)(=O)c2cc(Cl)ccc2N1` [diazoxide, reference compound], the “protection against ΔΨm loss in the presence of mitoKATP channel blocker 5HD” value in series [1] (100 μM H2O2) was “completely blocked”. Moreover, the “loss of ΔΨm induced by oxidative stress” value in [2] is “prevents the loss of ΔΨm induced by oxidative stress in a concentration-dependent manner”.

Regarding `C[S+]([O-])CC1C2CCC3(CCC4C(C)(C(=O)O)CCCC4(C)C3C2)C1O` (single isomer, unassigned; ent-15) [SFA, ent-15β-hydroxy-17-methylsulfinyl-16α-atisan-19-oic acid], in series [3], the hydroxyl radical-scavenging activity result was “exhibits hydroxyl radical-scavenging activity”. Further, the “rhod-2 fluorescence ([Ca2+]m overload)” value in series [4] is “partly attenuated the [Ca^2+]m overload”. Besides, in series [5], the “change in average blood pressure” value is listed as “no significant change in average blood pressure was observed”. Besides, the “DCF fluorescence (intracellular ROS)” value in series [6] is recorded as “suppressed the increase in DCF fluorescence”. The “TMRE fluorescence over 60 minutes (time-lapse)” value in series [7] (100 μM SFA pretreatment, H2O2 (50 μM, 100 μM elsewhere in the source)) is “remarkably preserved”. Further, in series [7] (setting [11]), the “number of cells undergoing the dissipation of ΔΨm” value is listed as “decreased the number of cells undergoing the dissipation of ΔΨm” and the “onset of ΔΨm loss” value is on record as “delayed the onset of ΔΨm loss”. Moreover, in series [8], the “cellular viability evaluated by MTS assay” value is listed as “partly but significantly protected against H2O2-induced cytotoxicity”. For the same molecule, the “nuclear morphology (DAPI staining)” value in series [9] (100 μM SFA, 100 μM H2O2 for 16 hours) was “significant protective effect in the preservation of nuclear morphology”. Also, the TUNEL-positive nuclei entry in [9] (pretreated with 100 μM SFA followed by 100 μM H2O2 for 16 hours, compared with H2O2 group) is reported as “obviously fewer TUNEL-positive nuclei”. Also, the “protection of neurons against glutamate, nitric oxide, and H2O2 cytotoxicity” value in series [10] is “exhibited the ability to protect cultured cortical and striatal neurons”. In addition, the “concentration at which the ΔΨm-preserving effect reached its maximum level” value in series [1] (100 μM H2O2 for 1 hour) was 100 µM. Further, the “protective effect in preventing the loss of ΔΨm, versus diazoxide” value in series [1] (100 μM SFA vs 100 μM diazoxide, 100 μM H2O2 for 1 hour) was “comparable to 100 μM diazoxide”. Also, the “effect of co-application with diazoxide on ΔΨm preservation” value in series [1] (100 μM diazoxide and 100 μM SFA vs SFA alone, 100 μM H2O2) is given as “did not exhibit an additive effect”. Also, the “protection against ΔΨm loss in the presence of mitoKATP channel blocker 5HD” value in series [1] (100 μM H2O2) is on record as “completely blocked”. Besides, the “effect on control level of ΔΨm” value in series [1] (SFA alone in the absence of H2O2) is “did not affect the control level of ΔΨm”. In addition, the “loss of ΔΨm (percentage of cells that maintain high (>200) TMRE fluorescence)” value in series [1] (various concentrations of SFA followed by 100 μM H2O2 for 1 hour) is “prevented the loss of ΔΨm in a concentration-dependent manner”.

The values are drawn from patent US20120115951A1, “PROTECTIVE ACTION OF SEROFENDIC ACID ON CARDIAC MUSCLE” (Eisai R & D Managment Co., Ltd, priority 2005, published 2012).
